Experimental data reported in US20230339983A1, “FLUORESCENT COMPOUNDS SPECIFIC FOR PLURIPOTENT STEM CELLS AND REPROGRAMMING-READY CELLS AND METHODS OF USING THE SAME” (Agency for Science, Technology and Research, priority 2018, published 2023).

Legend:
reprogrammed DPSCs = assay: FACS of reprogrammed DPSCs stained with BDL-E5 at 7 dpn and iPS colony count; type: cell-based, human; settings: DPSCs sorted at 7 dpn, seeded on MEF, two weeks
Procedure: Reprogrammed ASCs and DPSCs, AiPS and DiPS on D7 or D14 dpn were stained with BDL-E5 for 1 hour and then harvested using TrypLE and resuspended in 1×PBS. The cells were then subjected to FACS in the MoFlo XDP Cell Sorter (Beckman Coulter) under sterile conditions.
Different DPSC cell lines were reprogrammed using the feeder-free episomal method, incubated with BDL-E5, and subjected to fluorescence activated cell sorting (FACS) at 7 dpn. […] FIG. 10A (i) and (ii) represents the unstained DPSCs.
The cells were allowed to grow for the next two weeks until colonies appeared.

DPSCs = assay: Proliferation assay (Trypan Blue viable cell count); type: cell-based, human; settings: 500 nM
Procedure: To ensure that BDL-E5 was not toxic to the cells, DPSCs were incubated with BDL-E5 (500 nM) for 48 h and 72 h and viable cells were counted in a haemocytometer using the Tryphan Blue method. DPSCs in which CREB1 was over-expressed or silenced were also counted at 72 h post nucleofection to determine if gene manipulation has affected the cell proliferation.

[1] = test system: human iPS cells (AiPS, DiPS colonies); assay: DOFLA screening (primary, secondary, tertiary) of fluorescent probes on iPS cells versus original somatic cells; type: cell-based
Procedure: The chemical properties of the BDL library are previously described (Jeong et al., 2015). BDL-E5 is based on 4,4-difluoro-4-bora-3a,4a-diaza-s-indacene (BODIPY), with calculated mass of 528.3 and absorption maximum/emission maximum of 578/599 nm. Primary, secondary and tertiary screening of fluorescent probes on AiPS, ASCs, DiPS and DPSCs were performed as described previously (Im, et al. (2010). Angew Chem Int Ed Engl 49, 7497-7500; Kang, et al. (2011). Nat Protoc 6, 1044-1052) and in the Results section. Unless described otherwise, BDL-E5 and CDy1 images were acquired by the Tetramethylrhodamine (TRITC) channel of ImageXpress Micro High-Content Imaging System, which had the Adaptive Background Correction function enabled.
A high-throughput system using in-house Diversity Orientated Fluorescence Library Approach (DOFLA) was employed to screen 46 fluorescent probes that the inventors predicted may specifically recognize pluripotent stem cells. To identify fluorescent probes that detected human pluripotent stem cells, ASCs, ASC-derived iPS (AiPS) cells, DPSCs, and DPSC-derived iPS (DiPS) cells were used. […] Cells were seeded onto 384-well plates (primary screen) or 96-well plates (secondary and tertiary screen) coated with mouse embryonic fibroblasts (MEF) or matrigel (MG) for DOFLA screening (FIG. 1A). After 48 h, cells were stained with library probes (500 nM) for 1 h. Fluorescence was imaged using the ImageXpress System under the following conditions: “No wash” (after 1 h probe incubation), “Wash 0 min” (after one wash with PBS), “Wash 60 min” (after wash and destain for 1 h) and “Wash 180 min” (after wash and destain for 3 h) (FIG. 1A).
Images were analyzed using the MetaXpress Image Acquisition and Analysis software. Following tertiary screening, two probes were shortlisted to develop further as pluripotent probes: BDL-E5 and CDy1. The chemical structure of BDL-E5 is depicted in FIG. 1B.
Secondary screening was performed to confirm that the probes selectively stained different iPS colonies. […] The BDL-E5^+ colonies were also positively stained for the pluripotency marker TRA-1-60.
Based on the primary and secondary screenings for live fluorescent probes that can specifically identify pluripotent cells, BDL-E5 and CDy1 were chosen as two probes to further analyze. Tertiary screening was performed using the two probes on AiPS colonies under the following probe staining conditions: No wash, Wash 0 min, Wash 60 min, and Wash 180 min.

[2] = test system: reprogrammed ASCs and DPSCs on microcarriers; assay: Fluorescent probe staining on Cytodex 3 microcarriers (3D culture); type: cell-based, human; settings: 14 and 21 dpn
Procedure: Reprogrammed monolayer ASCs and DPSCs were dissociated into single cell suspension using Dispase. Single cell suspension was transferred into a 6-well Suspension Culture Plate (Greiner bio-one) with Matrigel (Geltrex™, ThermoFisher)-coated Cytodex 3 microcarrier in 4 ml of mTeSR1 supplemented with 10 μM of Rock Inhibitor Y27632 (Calbiochem). The plate was placed on an orbital shaker (110 rpm) for at least 2 hours for cell attachment. Afterward, the plate was transferred to static condition and incubated at 37° C./5% CO2. Media change was carried out with mTeSR1 daily thereafter by aspirating […] of spent medium from the well and adding 4 ml of fresh media (80% medium exchange). On Day 7, the cells on microcarriers were supplemented and maintained with 4 ml of mTeSR1+SMC4 media. 80% medium change was carried out every day.
BDL-E5 probe staining of reprogrammed ASCs and DPSCs on microcarriers was carried out on Day 14 and 21 dpn. The microcarrier culture was washed twice with sterile D-PBS. Prior to staining, media was changed to mTeSR1 with 500 nM BDL-E5 probe and Alexa Fluor® 488 Mouse anti-human TRA-1-60 (200× dilution) (BD Pharmingen™). Cultures were incubated for 1 hour. The cells were then washed twice with D-PBS and replaced with mTeSR1 prior to imaging. Images were taken using Axio Observer Fluorescent Microscope (Carl Zeiss). […]

BJ human fibroblasts = assay: Staining of BJ fibroblasts reprogrammed with lentiviral Yamanaka factors; type: cell-based
Excerpt: iPS cells were also generated from DPSCs with the traditional protocol involving retroviral vectors expressing OCT4, SOX2, KLF4, and C-MYC (Sugii, et al. (2011). Nature Protoc 6(3):346-358). BJ human neonatal fibroblasts were reprogrammed using lentiviral OCT4, SOX2, KLF4, and C-MYC as described previously (Toh, et al. (2016). Cell Rep 15(12):2597-2607).
We also tested whether BDL-E5 worked for commonly used reprogramming methods and cell type. DPSCs were infected with retroviral vectors expressing four Yamanaka factors, and plated onto MEF. […] In addition, BJ human fibroblasts were reprogrammed with lentiviral Yamanaka factors.

## COc1cc(F)c(/C=C/c2cc(C)c3n2[B-](F)(F)[N+]2=C(CCC(=O)NCCN(C)C)C=CC2=C3)cc1OC [BDL-E5]
Reprogrammed DPSCs
  iPS colonies from BDL-E5+ (top 10%) versus BDL-E5- (bottom 10%) sorted cells: gave rise to an increased number of iPSCs
DPSCs
  toxicity to cells: not toxic
[1]; 500 nM probe, 1 h, after tertiary screening
  intensity of fluorescence in human iPS cells compared with original somatic cells and MEFs: significantly increased intensity of fluorescence
[1]; primary screening, MEF- or MG-coated plates, 500 nM, 1 h, BDL-E5 No wash
  staining of AiPS colonies compared with original somatic cells (ASCs): increased BDL-E5 staining
[1]; secondary screening, MEF- or MG-coated plates, 500 nM, 1 h, BDL-E5 No wash
  staining of DiPS colonies compared with original DPSCs: significantly increased fluorescence intensity
[1]; tertiary screening, AiPS colonies on MEF-coated plates
  wash condition under which staining (signal-to-background ratio) was greatest: No wash
[1]; tertiary screening, AiPS colonies on MG-coated plates
  wash condition under which staining was greatest: No wash
[2]; 500 nM, 1 h
  staining of reprogrammed cells on microcarriers: clearly observed
[2]
  background staining of Cytodex 3 microcarriers themselves: no background BDL-E5 staining
BJ human fibroblasts
  staining of reprogramming versus non-reprogramming cells: successfully stained reprogramming, but not non-reprogramming cells
  staining strength compared with TRA-1-60: stronger than that of TRA-1-60
